{"source": "patent US10780091B2", "about": "“TLR7 agonist maleate salt, crystalline forms C, D and E thereof, preparation methods and uses of maleate salt and crystalline forms” (CHIA TAI TIANQING PHARMACEUTICAL GROUP CO., LTD., priority 2016, dated 2020)", "assay": "Stability tests of the crystal forms (high temperature, high humidity, light)", "type": "physicochemical", "conditions": "general statement; tests at 60° C., 40° C./75% humidity, 5000 Lx described but data not given", "description": "The crystal forms prepared in Examples 1-3 were tested in the accelerated test under high temperature conditions for stability in accordance with Guidelines for the Stability Test of Pharmaceutical Ingredients and Pharmaceutical Preparations (Chinese Pharmacopoeia 2010 Appendix XIXC).\nThe crystal forms C, D and E prepared in Examples 1-3 were placed in an open-clean container at 60° C., respectively. The samples were taken for test on day 10, day 20 and day 30, respectively. The results were compared with the initial test result on day 0.\nThe crystal forms prepared in Examples 1-3 were tested in the accelerated test under high humidity conditions for stability in accordance with Guidelines for the Stability Test of Pharmaceutical Ingredients and Pharmaceutical Preparations (Chinese Pharmacopoeia 2010 Appendix XIXC).\nThe crystal forms C, D and E prepared in Examples 1-3 were subjected to an accelerated test in a constant temperature and humidity vessel under the conditions of 40° C./75% humidity (open). The samples were taken for test on day 30, day 60 and day 90, respectively. The results were compared with the initial test result on day 0. […]", "data": [{"compound": "CCCCOc1nc(N)c2[nH]cc(Cc3ccc(CN4CCCC4)cc3)c2n1.O=C(O)/C=C\\C(=O)O", "note": "[crystal form C, Maleate of 2-butoxy-7-(4-(pyrrolidin-1-ylmethyl)benzyl)-5H-pyrrolo[3,2-d]pyrimidin-4-amine]", "values": [{"measurement": "stability of the crystal form", "result": "good stability"}]}]}
